Assay results reported in ChEMBL document CHEMBL3611975, “New carbocyclic N(6)-substituted adenine and pyrimidine nucleoside analogues with a bicyclo[2.2.1]heptane fragment as sugar moiety; synthesis, antiviral, anticancer activity and X-ray crystallography” (Bioorg Med Chem, 2015).

Tests used:
[1] = tested on: NCI-H460; assay: Cytotoxicity against human NCI-H460 cells assessed as growth at 10^-5 M relative to control
[2] = tested on: M14; assay: Cytotoxicity against human M14 cells assessed as growth at 10^-5 M relative to control
[3] = tested on: SW-620; assay: Cytotoxicity against human SW620 cells assessed as growth at 10^-5 M relative to control
[4] = tested on: HOP-92; assay: Cytotoxicity against human HOP92 cells assessed as growth at 10^-5 M relative to control
[5] = tested on: SNB-75; assay: Cytotoxicity against human SNB75 cells assessed as growth at 10^-5 M relative to control
[6] = tested on: OVCAR-3; assay: Cytotoxicity against human OVCAR3 cells assessed as growth at 10^-5 M relative to control
[7] = tested on: IGROV-1; assay: Cytotoxicity against human IGROV1 cells assessed as growth at 10^-5 M relative to control
[8] = tested on: BT-549; assay: Cytotoxicity against human BT549 cells assessed as growth at 10^-5 M relative to control
[9] = tested on: HCT-116; assay: Cytotoxicity against human HCT116 cells assessed as growth at 10^-5 M relative to control
[10] = tested on: OVCAR-8; assay: Cytotoxicity against human OVCAR8 cells assessed as growth at 10^-5 M relative to control
[11] = tested on: HT-29; assay: Cytotoxicity against human HT-29 cells assessed as growth at 10^-5 M relative to control
[12] = tested on: A498; assay: Cytotoxicity against human A498 cells assessed as growth at 10^-5 M relative to control
[13] = tested on: MCF7; assay: Cytotoxicity against human MCF7 cells assessed as growth at 10^-5 M relative to control
[14] = tested on: DU-145; assay: Cytotoxicity against human DU145 cells assessed as growth at 10^-5 M relative to control
[15] = tested on: UO-31; assay: Cytotoxicity against human UO31 cells assessed as growth at 10^-5 M relative to control
[16] = tested on: RXF 393; assay: Cytotoxicity against human RXF393 cells assessed as growth at 10^-5 M relative to control
[17] = tested on: SF-268; assay: Cytotoxicity against human SF268 cells assessed as growth at 10^-5 M relative to control
[18] = tested on: UACC-257; assay: Cytotoxicity against human UACC257 cells assessed as growth at 10^-5 M relative to control
[19] = tested on: OVCAR-5; assay: Cytotoxicity against human OVCAR5 cells assessed as growth at 10^-5 M relative to control
[20] = Cytotoxicity against human Hs578T cells assessed as growth at 10^-5 M relative to control; details: Hs-578T
[21] = Cytotoxicity against human EKVX cells assessed as growth at 10^-5 M relative to control
[22] = tested on: SF-295; assay: Cytotoxicity against human SF295 cells assessed as growth at 10^-5 M relative to control
[23] = tested on: NCI-H522; assay: Cytotoxicity against human NCI-H522 cells assessed as growth at 10^-5 M relative to control
[24] = tested on: NCI-H226; assay: Cytotoxicity against human NCI-H226 cells assessed as growth at 10^-5 M relative to control

| SMILES | growth, % of control at 10 µM [1] | growth, % of control at 10 µM [2] | growth, % of control at 10 µM [3] | growth, % of control at 10 µM [4] | growth, % of control at 10 µM [5] | growth, % of control at 10 µM [6] | growth, % of control at 10 µM [7] | growth, % of control at 10 µM [8] | growth, % of control at 10 µM [9] | growth, % of control at 10 µM [10] | growth, % of control at 10 µM [11] | growth, % of control at 10 µM [12] | growth, % of control at 10 µM [13] | growth, % of control at 10 µM [14] | growth, % of control at 10 µM [15] | growth, % of control at 10 µM [16] | growth, % of control at 10 µM [17] | growth, % of control at 10 µM [18] | growth, % of control at 10 µM [19] | growth, % of control at 10 µM [20] | also measured |
| --- | --- | --- | --- | --- | --- | --- | --- | --- | --- | --- | --- | --- | --- | --- | --- | --- | --- | --- | --- | --- | --- |
| OC[C@H]1[C@@H]2C[C@H](n3cnc4c(NCCc5ccccc5)ncnc43)[C@H]1C[C@@H]2Cl | 108% | 101% | 99.7% | 92.4% | 106% | 110% | 105% | 96.1% | 101% | 95.7% | 95.3% | 95.5% | 89.9% | 98% | 73.8% | 87% | 101% | 103% | 104% | – | – |
| COc1ccc(CCNc2ncnc3c2ncn3[C@H]2C[C@H]3[C@H](CO)[C@@H]2C[C@@H]3Cl)cc1 | 106% | 98.3% | 108% | 114% | 92.8% | 111% | 98.7% | 86.8% | 100% | 101% | 87.9% | 99.9% | 94.1% | 105% | 81% | 104% | 97.7% | 99.4% | 97.7% | 93.6% | growth, % of control at 10 µM [21]: 100%; growth, % of control at 10 µM [22]: 104%; growth, % of control at 10 µM [23]: 56.7%; growth, % of control at 10 µM [24]: 102% |
| CCOc1ncnc2c1ncn2[C@H]1C[C@H]2[C@H](CO)[C@@H]1C[C@@H]2Cl | 108% | 111% | 109% | 124% | 83.1% | 111% | 95.4% | 106% | 105% | 106% | 96.5% | 88.8% | 95.2% | 105% | 88.1% | 106% | 98% | 106% | 92.5% | 108% | growth, % of control at 10 µM [21]: 95.8%; growth, % of control at 10 µM [22]: 108%; growth, % of control at 10 µM [23]: 92.4%; growth, % of control at 10 µM [24]: 94.5% |
